Experimental data published in patent US20060030730A1, “Purification and production methods of 1-aminocyclopropanecarboxylic acid” (Daicel Chemical Industries, Ltd., priority 2004, published 2006).

Assay: Solubility of 1-aminocyclopropanecarboxylic acid in solvents
Type: physicochemical

Compound: NC1(C(=O)O)CC1 [1-aminocyclopropanecarboxylic acid]
- solubility in methanol (solvent methanol): about 1.0 % (wt/wt)
- solubility in organic acid having one to five carbon atoms (solvent: organic acid having one to five carbon atoms (e.g. acetic acid)): highly soluble
